# Earlier results in US20110177168A1, “COMPOSITION” (SmithKline Beecham Limited, priority 2000, published 2011).
# [1] = oral doses of conventional immediate release tablets
smiles,measurement,setting,value
"CC(=O)Nc1ccc(O)cc1 [paracetamol, N-acetyl-p-aminophenol]",bioavailability,[1],80%
same,tmax,[1],0.5 to 1.5 h
same,elimination half-life,reported,1.9 to 2.5 h
